“Also recorded” adds a separate entry of the source.
What was measured:
[1] = Plasma pharmacokinetics after i.p. injection; type: in vivo; conditions: mice, 25 mg/kg i.p.
Protocol: ST-539 was dissolved into 1% DMSO in Sesame oil and injected intraperitoneally (i.p.) at doses of 25 mg/kg. Serial blood samples were collected at 0.083, 0.25, 0.5, 1, 2, 4 and 8 hours post dosing. Mice were euthanized at 24 hours post dosing. A terminal blood sample was collected by cardiac puncture followed by harvesting the brain and heart. Transcardial perfusion was performed prior to brain collection. The blood samples were placed in microtubes pretreated with K2EDTA as an anticoagulant and kept on ice until centrifugation. The tissue samples were rinsed using cold distilled water to remove blood, blotted dry, weighed and stored on dry ice until LC/MS/MS analysis. Plasma was transferred into polypropylene tubes or 96-well plates, quick frozen on dry ice, and stored at −70±10 °C until LC/MS/MS analysis.

[2] = tested on: mitochondrial function; test: Mitochondrial function overall in cells; type: cell-based; conditions: regardless of USP30 expression
Protocol: HeLa cells and mouse embryonic fibroblasts (MEFs) were grown in Dulbecco's minimum essential medium (DMEM) with 10% fetal bovine serum (FBS) supplemented with penicillin-streptomycin. HeLa Parkin, PINK1 KO cells, WT and MFN2 KO cells were previously described. Cells stably expressing USP30 were generated using lentiviral vectors of pLVX-Puro-Myc-USP30. The USP30 plasmid was obtained from Addgene. The plasmid was transferred into a lentiviral vector and viral particles were prepared by transiently transfecting HEK293T using standard methods. For the drug treatment experiments, cells were incubated in medium containing a mixture of 5 μM oligomycin and 5 μM antimycin A (A/O; see figures for treatment times). In 18 h treatment, A/O were used in combination with 10 μM quinolyl-valyl-O-methylaspartyl-[−2,6-difluorophenoxy]-methyl ketone (QVD), a broad-spectrum caspase inhibitor. ST51000539 (ST-539) was purchased from Tim Tec, Inc. Other chemicals were from Sigma-Aldrich (St. Louis, MO, USA). For FACS analysis, cells stably expressing mt-Keima were incubated in medium containing a mixture of […] antimycin A for 1.5 h. Prior to A/O treatment, cultures were treated with DMSO or ST-539 at 3 μg/ml. Cells were trypsinized, washed once with PBS buffer and then resuspended into 500 μl of PBS prior to analysis using a BD Fortessa flow cytometer as previously described.

[3] = tested on: HeLa-Parkin and HeLa-Parkin cells expressing USP30; test: Oxygen consumption, Seahorse assay; type: cell-based
Protocol: Measurement of intact cellular respiration was performed using the Seahorse XFe96 Analyzer as previously described. In brief, 2×10^4 cells per well were seeded in the Seahorse XF Cell Culture Microplate (Agilent) using high-glucose DMEM at 37 °C, with a humidified atmosphere of 5% CO2, overnight. And a sensor cartridge was hydrated in Seahorse XF Calibrant in a non-CO2 incubator overnight at 37 °C. The high-glucose DMEM in Cell Culture Microplate was changed to warmed assay medium and placed into a 37 °C non-CO2 incubator for 45 minutes prior to the assay. Oligomycin (1.5 μM/well), FCCP (1 μM/well) and Antimycin A (0.5 μM/well) were supplemented at 18 minutes, 36 minutes and 54 minutes, respectively. The results were analyzed using the Seahorse Wave software.

[4] = tested on: TOM40; test: TOM40 protein level/degradation after A/O, immunoblotting; type: cell-based; conditions: ST-539; HeLa-Parkin/USP30, A/O 18 h
Protocol: HeLa cells and mouse embryonic fibroblasts (MEFs) were grown in Dulbecco's minimum essential medium (DMEM) with 10% fetal bovine serum (FBS) supplemented with penicillin-streptomycin. HeLa Parkin, PINK1 KO cells, WT and MFN2 KO cells were previously described. Cells stably expressing USP30 were generated using lentiviral vectors of pLVX-Puro-Myc-USP30. The USP30 plasmid was obtained from Addgene. The plasmid was transferred into a lentiviral vector and viral particles were prepared by transiently transfecting HEK293T using standard methods. For the drug treatment experiments, cells were incubated in medium containing a mixture of 5 μM oligomycin and 5 μM antimycin A (A/O; see figures for treatment times). In 18 h treatment, A/O were used in combination with 10 μM quinolyl-valyl-O-methylaspartyl-[−2,6-difluorophenoxy]-methyl ketone (QVD), a broad-spectrum caspase inhibitor. […]
The enzymatic activity of Parkin is to function as an E3 ubiquitin ligase. […] We then employed this cellular assay to monitor TOM20 turnover, and analyzed compounds known to be associated with the ubiquitination process for inhibitors of USP30. […] Initially to assess mitophagy in cells, we monitored the degradation of the inner membrane protein, the translocase of the inner membrane 23 (TIM23), by immunoblotting (FIG. 5A). […]

CC(C)(C)NS(=O)(=O)c1cccc2c(NC(=O)C(Cc3ccccc3)NC(=O)c3ccccc3)cccc12 (stereo not shown) [ST-539]
area under the plasma drug concentration-time curve (AUC) [1]: ~ 4.2 μg·h/ml | half-life (T1/2) [1]: about 3.85 hr | maximum plasma concentration (Cmax) [1]: about 1.4 μg/ml | time to reach peak plasma concentration (Tmax) [1]: 1.33 h | AUC0-inf ([1]; plasma): 4240 ng·h/mL | AUC0-last ([1]; plasma): 4162 ng·h/mL | Cmax ([1]; plasma): 1427 ng/mL | MRT0-inf ([1]; plasma): 4.27 h | MRT0-last ([1]; plasma): 3.86 h | T1/2 ([1]; plasma): 3.85 h | Tlast ([1]; plasma): 24.0 h | Tmax ([1]; plasma): 1.33 h | effect on mitochondrial function [2]: minimal effect on mitochondrial function; also recorded: marginally alters mitochondrial function | basal and maximal respiration ([3]; 24 h ST-539, high dose): slight increase | basal respiration and spare respiratory capacity ([3]; ST-539, both cell lines): Slightly increased | TOM40 degradation [4]: restored TIM23 and TOM40 degradation
